Test results: patent publication US10695283B2, “Extract of Greyia radlkoferi and use thereof” (UNIVERSITY OF PRETORIA, priority 2012, dated 2020)

What was measured:
tyrosinase = tyrosinase inhibition; format: biochemical; settings: for individual tyrosinase inhibitory capability: isolated compounds; for tyrosinase 50% inhibitory concentration (IC50) of the individual phenolic compound: compound used in isolation
melanocyte cells = assay: inhibition of melanin release by melanocyte cells in vitro; format: cell-based
Excerpt: The inhibition of hyper-pigmentation is not restricted to inhibition at the enzyme level but melanin inhibition can also be achieved in vitro by the inhibition of melanin release by melanocyte cells.

SMILES	tyrosinase 50% inhibitory concentration (IC50) of the individual phenolic compound (tyrosinase)	tyrosinase 50% inhibitory concentration (IC50) (tyrosinase; L-tyrosine and DOPA used as substrates)	individual tyrosinase inhibitory capability (tyrosinase)	melanin reduction (melanocyte cells; at 3.125 μg/ml)	melanin inhibited (melanocyte cells; at concentrations as low as 3.1 μg/ml)
O=C1C[C@@H](c2ccccc2)Oc2cc(O)cc(O)c21 [Compound C1, 5,7-dihidroxyflavone[(2S)-pinocembrin]]	–	–	exhibit individual tyrosinase inhibitory capabilities	–	–
COc1cc(O)c(C(=O)CCc2ccccc2)c(O)c1 [Compound C2, 2′,6′-dihydroxy-4′-methoxydihydrochalcone]	21.42 µg/mL	–	exhibit individual tyrosinase inhibitory capabilities	20%	–
O=c1c(-c2ccc(O)cc2)coc2cc(O)cc(O)c12 [Compound C5, 4′,5′7-trihydroxyisoflavone]	–	–	exhibit individual tyrosinase inhibitory capabilities	–	–
O=C(/C=C/c1ccc(O)cc1)c1ccc(O)cc1O [isoliquirtigenin, reference compound]	–	896.88 µg/mL	–	–	–

More lines, main results first:

tyrosinase 50% inhibitory concentration (IC50) of the individual phenolic compound (tyrosinase)	tyrosinase 50% inhibitory concentration (IC50) (tyrosinase; L-tyrosine and DOPA used as substrates)	SMILES	individual tyrosinase inhibitory capability (tyrosinase)	melanin reduction (melanocyte cells; at 3.125 μg/ml)	melanin inhibited (melanocyte cells; at concentrations as low as 3.1 μg/ml)
17.86 µg/mL	–	O=C(CCc1ccccc1)c1c(O)cc(O)cc1O [Compound C3, 2′,4′,6′-trihydroxyhydrochalcone]	exhibit individual tyrosinase inhibitory capabilities	–	–
2.23 µg/mL	–	O=c1c(O)c(-c2ccccc2)oc2cc(O)cc(O)c12 [Compound C4, 3,5,7-trihydroxyflavone]	exhibit individual tyrosinase inhibitory capabilities	–	more than 50%
